# Like-named read-outs stand apart in the source and are kept apart here. e = 2'-O-(2-methoxyethyl) (MOE); d = 2'-deoxy (DNA)
# Legend:
# [1] = rat, in vivo, sc, 50 mg/kg
# [2] = mouse, in vivo, sc, 50 mg/kg
# [3] = mouse, in vivo, sc, 50 mg/kg; remark: listed apart in the source
# [4] = mouse, in vivo, sc, 50 mg/kg; remark: listed apart in the source
# [5] = rat, in vivo, sc, 50 mg/kg; remark: listed apart in the source
# [6] = rat, in vivo, sc, 50 mg/kg; remark: listed apart in the source
Substance,BUN [1] [mg/dL],Creatinine [1] [mg/dL],Total urine protein [1] [mg/dL],Urine protein/creatinine ratio [1],HCT [2] [%],Lymphocyte [2] [cells/μL],Neutrophil [2] [cells/μL],Platelets [2],RBC [2],WBC [2],hemoglobin [2] [g/dL],monocytes [2] [cells/μL],BUN [3] [mg/dL],ALT [4] [IU/L],AST [4] [IU/L],Bilirubin [4] [mg/dL],Cholesterol [4] [mg/dL],HCT [5] [%],Lymphocyte [5],Neutrophil [5],further results
"ISIS 412223: 5-10-5 MOE gapmer ACAGTTTCTGGCAGGCCTCG (sugars from the 5' end e5 d10 e5, backbone and methylation of C not given here)",24,46,224,4.6,48,4599,1756,862 10^3/μL,9 10^6/μL,7 10^3/μL,15,200,28,60,125,0.20,117,41,16990,1826,Platelets [5]: 567; RBC [5]: 7.2 10^6/μL; WBC [5]: 20 10^3/μL; hemoglobin [5]: 13.1 g/dL; ALT [6]: 85 IU/L; AST [6]: 180 IU/L; Albumin [6]: 5; Bilirubin [6]: 0.14 mg/dL
"ISIS 412224: 5-10-5 MOE gapmer GCATTGGTGCACAGTTTCTG (sugars from the 5' end e5 d10 e5, backbone and methylation of C not given here)",24,44,171,3.8,50,6284,2107,647 10^3/μL,10 10^6/μL,9 10^3/μL,15,195,29,214,183,0.19,114,42,16807,1865,Platelets [5]: 685; RBC [5]: 7.4 10^6/μL; WBC [5]: 20 10^3/μL; hemoglobin [5]: 13.4 g/dL; ALT [6]: 84 IU/L; AST [6]: 132 IU/L; Albumin [6]: 4; Bilirubin [6]: 0.12 mg/dL
"ISIS 412225: 5-10-5 MOE gapmer GCAGCGGACGGCATTGGTGC (sugars from the 5' end e5 d10 e5, backbone and methylation of C not given here)",23,58,209,4.0,50,4969,1547,574 10^3/μL,9 10^6/μL,7 10^3/μL,15,293,23,40,69,0.23,128,42,13204,1499,Platelets [5]: 673; RBC [5]: 7.4 10^6/μL; WBC [5]: 15 10^3/μL; hemoglobin [5]: 13.4 g/dL; ALT [6]: 48 IU/L; AST [6]: 108 IU/L; Albumin [6]: 5; Bilirubin [6]: 0.15 mg/dL
"ISIS 413481: 5-10-5 MOE gapmer GGTGCACAGTTTCTGGCAGG (sugars from the 5' end e5 d10 e5, backbone and methylation of C not given here)",26,45,148,3.6,45,4329,1904,841 10^3/μL,9 10^6/μL,7 10^3/μL,13,204,23,85,143,0.18,153,43,12707,1046,Platelets [5]: 552; RBC [5]: 7.5 10^6/μL; WBC [5]: 14 10^3/μL; hemoglobin [5]: 14.2 g/dL; ALT [6]: 54 IU/L; AST [6]: 80 IU/L; Albumin [6]: 4; Bilirubin [6]: 0.22 mg/dL
"ISIS 413482: 5-10-5 MOE gapmer GGACGGCATTGGTGCACAGT (sugars from the 5' end e5 d10 e5, backbone and methylation of C not given here)",23,34,157,4.8,50,5584,1958,818 10^3/μL,10 10^6/μL,8 10^3/μL,15,275,27,54,77,0.24,138,40,11430,1125,Platelets [5]: 641; RBC [5]: 7.1 10^6/μL; WBC [5]: 13 10^3/μL; hemoglobin [5]: 13.2 g/dL; ALT [6]: 59 IU/L; AST [6]: 157 IU/L; Albumin [6]: 4; Bilirubin [6]: 0.14 mg/dL
"ISIS 416848: MOE gapmer, nucleobases 1275 to 1318 of SEQ ID NO: 1 (Table 8) (antisense CACAGTTTCTGGCAGGCCTC; MOE gapmer, wing and gap sizes not given here)",26,64,231,3.9,47,5268,1264,953 10^3/μL,9 10^6/μL,7 10^3/μL,14,180,23,153,153,0.19,151,35,14316,1874,Platelets [5]: 384; RBC [5]: 6.0 10^6/μL; WBC [5]: 17 10^3/μL; hemoglobin [5]: 11.1 g/dL; ALT [6]: 89 IU/L; AST [6]: 236 IU/L; Albumin [6]: 3; Bilirubin [6]: 0.14 mg/dL
"ISIS 416851: MOE gapmer, nucleobases 1275 to 1318 of SEQ ID NO: 1 (Table 8) (antisense GTGCACAGTTTCTGGCAGGC; MOE gapmer, wing and gap sizes not given here)",24,70,286,4.0,47,4162,1619,984 10^3/μL,9 10^6/μL,6 10^3/μL,14,194,21,47,76,0.19,106,42,9911,1001,Platelets [5]: 734; RBC [5]: 7.4 10^6/μL; WBC [5]: 11 10^3/μL; hemoglobin [5]: 13.7 g/dL; ALT [6]: 64 IU/L; AST [6]: 91 IU/L; Albumin [6]: 4; Bilirubin [6]: 0.14 mg/dL
"ISIS 416852: MOE gapmer, nucleobases 1275 to 1318 of SEQ ID NO: 1 (Table 8) (antisense TGGTGCACAGTTTCTGGCAG; MOE gapmer, wing and gap sizes not given here)",25,60,189,3.0,49,3646,1241,903 10^3/μL,9 10^6/μL,5 10^3/μL,14,189,21,49,91,0.16,125,42,11956,836,Platelets [5]: 632; RBC [5]: 7.2 10^6/μL; WBC [5]: 13 10^3/μL; hemoglobin [5]: 13.4 g/dL; ALT [6]: 49 IU/L; AST [6]: 87 IU/L; Albumin [6]: 4; Bilirubin [6]: 0.15 mg/dL

# From US20230263822A1, “MODULATION OF FACTOR 11 EXPRESSION” (Ionis Pharmaceuticals, Inc., priority 2008, published 2023)
